Laboratory results: PubChem BioAssay (NCI)
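96-well plates; 48 h exposure; 5 concentrations. Endpoints by linear interpolation between flanking doses. Not reached: highest tested concentration assigned. TGI denotes the concentration required for complete inhibition of growth.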

Tests used:
Assay in all cases: DTP human tumour cell line panel, 48 h
[1] = test system: OVCAR-3 ovarian
[2] = test system: DLD-1 colon
[3] = test system: SK-MEL-2 melanoma
[4] = test system: LXFL 529 NSCLC
[5] = test system: HOP-92 NSCLC
[6] = test system: DMS 273 small cell lung
[7] = test system: NCI-H226 lung
[8] = test system: HS 578T breast
[9] = test system: PC-3 prostate
[10] = test system: BT-549 breast

**Q.** `Cc1ccc(C)c(NC(=O)CC/C(=N\NC(=O)C(=O)NN)C(C)C(=O)c2ccc(O)cc2)c1` (centres undefined) was tested. Which TGI [1] did it give?
**A.** The TGI was > 100 µM.

**Q.** And the TGI [2]?
**A.** Its TGI is > 100 µM.

**Q.** What about the TGI [3] of the same compound?
**A.** The TGI was > 100 µM.

**Q.** What about the TGI [4] of the same compound?
**A.** Its TGI is > 100 µM.

**Q.** What about the TGI [5] of the same compound?
**A.** The TGI was > 100 µM.

**Q.** And the TGI [6]?
**A.** Its TGI is > 100 µM.

**Q.** What about the TGI [7] of the same compound?
**A.** Its TGI is > 100 µM.

**Q.** How did the TGI [8] turn out when `Cc1cc(N(CCOS(C)(=O)=O)CCOS(C)(=O)=O)ccc1C=Nc1ccc(-c2nc(Cc3ccccc3)sc2C)cc1` was run?
**A.** The TGI was 34.6 µM.

**Q.** What about the TGI [1] of the same compound?
**A.** Its TGI is 19.6 µM.

**Q.** What about the TGI [2] of the same compound?
**A.** The TGI was 31.9 µM.

**Q.** What about the TGI [3] of the same compound?
**A.** The TGI was 34.9 µM.

**Q.** What about the TGI [9] of the same compound?
**A.** The TGI was 22.1 µM.

**Q.** And the TGI [4]?
**A.** The TGI was > 50.3 µM.

**Q.** What about the TGI [5] of the same compound?
**A.** Its TGI is 25.4 µM.

**Q.** What about the TGI [6] of the same compound?
**A.** Its TGI is 21.7 µM.

**Q.** What about the TGI [7] of the same compound?
**A.** The TGI was 22.6 µM.

**Q.** What about the TGI [10] of the same compound?
**A.** Its TGI is 34.8 µM.

**Q.** Which TGI [1] does the source give for `CCCCCCCCCCCC(=O)CC(=O)c1c(O)cccc1O` here?
**A.** Its TGI is 34.4 µM.

**Q.** What about the TGI [2] of the same compound?
**A.** The TGI was 32.4 µM.

**Q.** And the TGI [3]?
**A.** The TGI was 31 µM.

**Q.** And the TGI [4]?
**A.** Its TGI is 32.2 µM.

**Q.** What about the TGI [5] of the same compound?
**A.** The TGI was 39 µM.

**Q.** What about the TGI [6] of the same compound?
**A.** Its TGI is 32.6 µM.

**Q.** What about the TGI [7] of the same compound?
**A.** Its TGI is 32.1 µM.

**Q.** Which results are given for `CC1OC(n2cc(F)c(=O)[nH]c2=O)CCC1O` (centres undefined)?
**A.** TGI [8]: > 100 µM; TGI [1]: > 100 µM; TGI [2]: > 100 µM; TGI [3]: > 100 µM; TGI [9]: > 100 µM; TGI [4]: > 100 µM; TGI [5]: > 100 µM; TGI [6]: > 100 µM; TGI [7]: > 100 µM; TGI [10]: > 100 µM

**Q.** How did the TGI [1] turn out when `CCCCN(CCCC)C(=O)C(=O)C(C#N)c1ccc(C)cc1` (centres undefined) was run?
**A.** Its TGI is > 100 µM.

**Q.** What about the TGI [2] of the same compound?
**A.** Its TGI is > 100 µM.

**Q.** And the TGI [3]?
**A.** The TGI was > 100 µM.

**Q.** What about the TGI [4] of the same compound?
**A.** Its TGI is > 100 µM.

**Q.** And the TGI [5]?
**A.** The TGI was > 100 µM.

**Q.** And the TGI [6]?
**A.** Its TGI is > 100 µM.

**Q.** And the TGI [7]?
**A.** Its TGI is > 100 µM.

**Q.** For `N#C/C(=C/c1ccsc1)C(=O)c1ccccc1`, which TGI [1] is on record?
**A.** The TGI was > 100 µM.

**Q.** What about the TGI [2] of the same compound?
**A.** Its TGI is > 100 µM.

**Q.** And the TGI [3]?
**A.** Its TGI is > 100 µM.

**Q.** What about the TGI [4] of the same compound?
**A.** Its TGI is > 100 µM.

**Q.** And the TGI [5]?
**A.** The TGI was > 100 µM.

**Q.** What about the TGI [6] of the same compound?
**A.** The TGI was > 100 µM.

**Q.** And the TGI [7]?
**A.** Its TGI is > 100 µM.

**Q.** Which TGI [1] does the source give for `COc1ccc2[nH]c3c(C)c4c(c(C)c3c2c1)CN(C)CC4` here?
**A.** Its TGI is 30.3 µM.

**Q.** What about the TGI [2] of the same compound?
**A.** Its TGI is 93.7 µM.

**Q.** And the TGI [3]?
**A.** Its TGI is 31.5 µM.

**Q.** What about the TGI [4] of the same compound?
**A.** Its TGI is 36.1 µM.

**Q.** What about the TGI [5] of the same compound?
**A.** The TGI was 32.2 µM.

**Q.** And the TGI [6]?
**A.** The TGI was 29.6 µM.

**Q.** What about the TGI [7] of the same compound?
**A.** Its TGI is 30.8 µM.

**Q.** What does the source list for `COc1ccc(CNc2cc(OC)c(OC)c(OC)c2)cc1`?
**A.** TGI [1]: > 48.5 µM; TGI [2]: > 100 µM; TGI [3]: > 100 µM; TGI [4]: > 100 µM; TGI [5]: > 100 µM; TGI [6]: > 100 µM; TGI [7]: > 62.1 µM

**Q.** Which results are given for `CCCCCCCCCC[C@@H](O)[C@@H]1CC[C@H]([C@H]2CC[C@@H]([C@@H](O)CCCCCCCCCC[C@H]3CC(CC(C)=O)C(=O)O3)O2)O1` (some centres undefined)?
**A.** TGI [1]: 17.8 µM; TGI [2]: 83 µM; TGI [3]: 30.7 µM; TGI [4]: 19.5 µM; TGI [5]: 33.4 µM; TGI [6]: 32.8 µM; TGI [7]: 20.2 µM
